Laboratory results published in ChEMBL document CHEMBL1201862, “PubChem BioAssay data set” (2004).
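Interpolation was linear, between the two tested concentrations surrounding the appropriate level; five concentrations were tested over 48 hours in 96-well plates. GI50 is the concentration that inhibits growth by half.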 Activity calls are given as the source filed them. Cut-off read from the data, not from the text of the source: active = GI50 up to about 1.1 µM and inactive = higher.

Legend:
Assay in all cases: NCI anticancer screen, dose series, 48 h
OVCAR-5 = test system: OVCAR-5
CAKI-1 = test system: CAKI-1
HCT-15 = test system: HCT-15
K562 = test system: K562
KM12 = test system: KM12
NCI-H522 = test system: NCI-H522
UACC-257 = test system: UACC-257
SK-OV-3 = test system: SK-OV-3
ACHN = test system: ACHN
NCI-H226 = test system: NCI-H226
LXFL 529 = test system: LXFL 529
SF-268 = test system: SF-268
SK-MEL-2 = test system: SK-MEL-2
NCI-H460 = test system: NCI-H460
RXF 393 = test system: RXF 393
SW-620 = test system: SW-620
LOX IMVI = test system: LOX IMVI

SMILES | GI50 (OVCAR-5) | GI50 (CAKI-1) | GI50 (HCT-15) [µM] | GI50 (K562) | GI50 (KM12) | GI50 (NCI-H522) | GI50 (UACC-257) | GI50 (SK-OV-3) | GI50 (ACHN) | GI50 (NCI-H226) | GI50 (LXFL 529) | GI50 (SF-268) | GI50 (SK-MEL-2) | GI50 (NCI-H460) | GI50 (RXF 393) | GI50 (SW-620) | GI50 (LOX IMVI)
COC(=O)[C@@]12OC[C@]34C([C@@H](O)C1O)[C@@]1(C)CC(=O)C(O)=C(C)C1C[C@H]3OC(=O)[C@H](OC(=O)/C=C(/c1ccccc1)C(F)(F)F)[C@H]42 (stereo not given in full) | 8.75 µM (inactive) | 7.59 µM (inactive) | 7.93 | 4.93 µM (inactive) | 5.74 µM (inactive) | 2.42 µM (inactive) | 7.03 µM (inactive) | 7.29 µM (inactive) | 4.21 µM (inactive) | 2.02 µM (inactive) | 2.65 µM (inactive) | 8.81 µM (inactive) | 8.26 µM (inactive) | 1.03 µM (active) | 6.05 µM (inactive) | – | –
C/C(=C\c1ccccc1)C(=O)c1c(C)cc(C)cc1C | – | > 100 µM (inactive) | > 100 | > 100 µM (inactive) | > 100 µM (inactive) | > 100 µM (inactive) | > 100 µM (inactive) | > 100 µM (inactive) | > 100 µM (inactive) | > 100 µM (inactive) | > 100 µM (inactive) | > 100 µM (inactive) | > 100 µM (inactive) | > 100 µM (inactive) | > 100 µM (inactive) | > 100 µM (inactive) | –
CCCCCCCCCCCCCP(=O)(NCC(N)=O)OCC (stereo not given) | 19.5 µM (inactive) | – | 17.8 | – | 18.4 µM (inactive) | > 10 µM (inactive) | 18.9 µM (inactive) | 21.3 µM (inactive) | 21.8 µM (inactive) | 17.5 µM (inactive) | 16.8 µM (inactive) | 19.1 µM (inactive) | 16.3 µM (inactive) | 20.6 µM (inactive) | 22.5 µM (inactive) | 19.9 µM (inactive) | > 10 µM (inactive)
CCOC(=O)C(C)(C)Oc1ccc2c(-c3ccc(Cl)cc3)cc(=O)oc2c1 | – | – | > 100 | > 100 µM (inactive) | – | – | > 100 µM (inactive) | – | > 100 µM (inactive) | > 100 µM (inactive) | > 100 µM (inactive) | > 100 µM (inactive) | > 100 µM (inactive) | > 100 µM (inactive) | > 100 µM (inactive) | > 100 µM (inactive) | > 100 µM (inactive)
CC[C@@H]1OC2(C)CC(S(=O)(=O)c3ccccc3)CC1O2 (stereo not given in full) | > 100 µM (inactive) | < 0.01 µM (active) | > 100 | > 100 µM (inactive) | > 100 µM (inactive) | > 100 µM (inactive) | > 100 µM (inactive) | > 100 µM (inactive) | > 100 µM (inactive) | > 100 µM (inactive) | > 100 µM (inactive) | > 100 µM (inactive) | > 100 µM (inactive) | > 100 µM (inactive) | > 100 µM (inactive) | > 100 µM (inactive) | –
CC(=O)C1CC2(c3ccccc3)C(=O)c3ccccc3N2O1 (stereo not given) | – | – | > 100 | > 100 µM (inactive) | – | > 100 µM (inactive) | > 100 µM (inactive) | > 100 µM (inactive) | > 100 µM (inactive) | > 100 µM (inactive) | > 100 µM (inactive) | > 100 µM (inactive) | – | – | > 100 µM (inactive) | > 100 µM (inactive) | –
CC(=O)CC(=O)NC=O | > 100 µM (inactive) | > 100 µM (inactive) | > 100 | > 100 µM (inactive) | > 100 µM (inactive) | > 100 µM (inactive) | > 100 µM (inactive) | > 100 µM (inactive) | > 100 µM (inactive) | > 100 µM (inactive) | > 100 µM (inactive) | > 100 µM (inactive) | > 100 µM (inactive) | > 100 µM (inactive) | > 100 µM (inactive) | > 100 µM (inactive) | –
